Assay results published in publication doi:10.1101/2024.08.19.608619, “Discovery of potent SARS-CoV-2 nsp3 macrodomain inhibitors uncovers lack of translation to cellular antiviral response” (bioRxiv, 2024).
Where two headings read alike, the source gives them in different places.

Assays:
[1] = molecular target: T1, SARS-CoV-2 nsp3-mac1 (Severe acute respiratory syndrome coronavirus 2, UniProt P0DTD1); assay: biochemical; design: SARS-CoV-2 nsp3 macrodomain TR-FRET single point, per cent inhibition, n=2
[2] = molecular target: T1, SARS-CoV-2 nsp3-mac1; assay: biochemical; format: biochemical; settings: SARS-CoV-2 nsp3 macrodomain TR-FRET single point
[3] = read-out: perc_inhibition_mean, batch_name=ASAP-0000469-001
[4] = read-out: perc_inhibition_mean, batch_name=ASAP-0000467-001
[5] = read-out: perc_inhibition_mean, batch_name=ASAP-0000415-001
[6] = read-out: perc_inhibition_mean, batch_name=ASAP-0000448-001
[7] = read-out: perc_inhibition_mean, batch_name=ASAP-0000343-001
[8] = read-out: perc_inhibition_mean, batch_name=ASAP-0000319-001
[9] = read-out: perc_inhibition_mean, batch_name=ASAP-0000388-001
[10] = read-out: perc_inhibition_mean, batch_name=ASAP-0000405-001
[11] = read-out: perc_inhibition_mean, batch_name=ASAP-0000476-001
[12] = read-out: perc_inhibition_mean, batch_name=ASAP-0000399-001
[13] = read-out: perc_inhibition_mean, batch_name=ASAP-0000313-001

SMILES: O[C@@]1(C(F)(F)F)CCCN(c2ncnc3n[nH]cc23)CC1 [ASAP-0000057]
- inhibition at 50 µM ([1]; read-out: perc_inhibition_mean, batch_name=ASAP-0000057-001): -4.14%
- perc_inhibition_mean ([2]; concentration 50.0 uM): -4.139%

SMILES: O=C(N[C@H](Cn1cnc2cc(F)c(F)cc21)C(=O)O)c1ncnc2[nH]ccc12 [ASAP-0000469]
- inhibition at 49.75 µM [1, 3]: -2.04%
- inhibition at 99.5 µM [1, 3]: 8.39%
- perc_inhibition_mean ([2]; concentration 49.75 uM): -2.035%
- perc_inhibition_mean ([2]; concentration 99.5 uM): 8.395%

SMILES: COc1ccccc1C[C@@H](Nc1ncnc2[nH]ccc12)C(C)C [ASAP-0000467]
- inhibition at 49.75 µM [1, 4]: 31.7%
- inhibition at 99.5 µM [1, 4]: 48.5%
- perc_inhibition_mean ([2]; concentration 49.75 uM): 31.716%
- perc_inhibition_mean ([2]; concentration 99.5 uM): 48.499%

SMILES: O=C(c1cccnc1O)N1CCC(c2ccn3ncc(C(=O)N4CCCCC4)c3c2)CC1 [ASAP-0000415]
- inhibition at 49.75 µM [1, 5]: -7.04%
- inhibition at 99.5 µM [1, 5]: -3.94%
- perc_inhibition_mean ([2]; concentration 49.75 uM): -7.036%
- perc_inhibition_mean ([2]; concentration 99.5 uM): -3.94%

SMILES: Cn1cc([C@H]2CSCCN2c2ncnc3[nH]ccc23)cn1 [ASAP-0000448]
- inhibition at 49.75 µM [1, 6]: -6.49%
- inhibition at 99.5 µM [1, 6]: -3.46%
- perc_inhibition_mean ([2]; concentration 49.75 uM): -6.49%
- perc_inhibition_mean ([2]; concentration 99.5 uM): -3.463%

SMILES: C=CCn1c(Cc2ccccc2)nnc1Sc1ncnc2[nH]ccc12 [ASAP-0000048]
- inhibition at 50 µM ([1]; read-out: perc_inhibition_mean, batch_name=ASAP-0000048-001): -7.71%
- perc_inhibition_mean ([2]; concentration 50.0 uM): -7.711%

SMILES: O=C1NC[C@@H](C(=O)N(CCC(=O)N2CCNCC2)Cc2cccc(Cl)c2)O1 [ASAP-0000343]
- inhibition at 49.75 µM [1, 7]: 0.125%
- inhibition at 99.5 µM [1, 7]: 5.24%
- perc_inhibition_mean ([2]; concentration 49.75 uM, n=2): 0.125%
- perc_inhibition_mean ([2]; concentration 99.5 uM, n=2): 5.241%

SMILES: CC(=O)Nc1ccc(S(=O)(=O)NNc2ncnc3sccc23)cc1 [ASAP-0000109]
- inhibition at 50 µM ([1]; read-out: perc_inhibition_mean, batch_name=ASAP-0000109-001): 5.36%
- perc_inhibition_mean ([2]; concentration 50.0 uM): 5.363%

SMILES: c1ccc(OC[C@@H]2CCCN2c2ncnc3[nH]ccc23)cc1 [ASAP-0000009]
- inhibition at 50 µM ([1]; read-out: perc_inhibition_mean, batch_name=ASAP-0000009-001): -0.466%
- perc_inhibition_mean ([2]; concentration 50.0 uM): -0.466%

SMILES: Nc1ncc(C(=O)N(CCC(=O)N2CCNCC2)Cc2cccc(Cl)c2)cn1 [ASAP-0000319]
- inhibition at 49.75 µM [1, 8]: -2.76%
- inhibition at 99.5 µM [1, 8]: -1.73%
- perc_inhibition_mean ([2]; concentration 49.75 uM, n=2): -2.76%
- perc_inhibition_mean ([2]; concentration 99.5 uM, n=2): -1.726%

SMILES: Cc1nc(NC(=O)[C@@H]2CCCOC2)c2ccnc-2[nH]1 [ASAP-0000078]
- inhibition at 50 µM ([1]; read-out: perc_inhibition_mean, batch_name=ASAP-0000078-001): -3.2%
- perc_inhibition_mean ([2]; concentration 50.0 uM): -3.202%

SMILES: O[C@H]1C[C@](CNc2ncnc3[nH]ccc23)(c2ccccc2)C1 [ASAP-0000080]
- inhibition at 50 µM ([1]; read-out: perc_inhibition_mean, batch_name=ASAP-0000080-001): 11.4%
- perc_inhibition_mean ([2]; concentration 50.0 uM): 11.369%

SMILES: CSc1ccccc1NC(=O)c1ncnc2[nH]ccc12 [ASAP-0000190]
- inhibition at 50 µM ([1]; read-out: perc_inhibition_mean, batch_name=ASAP-0000190-001): -5.8%
- perc_inhibition_mean ([2]; concentration 50.0 uM): -5.805%

SMILES: Cc1cc(N)ncc1C(=O)N1CCC(c2ccn3ncc(C(=O)N4CCCCC4)c3c2)CC1 [ASAP-0000388]
- inhibition at 49.75 µM [1, 9]: 19.5%
- inhibition at 99.5 µM [1, 9]: 32.6%
- perc_inhibition_mean ([2]; concentration 49.75 uM): 19.535%
- perc_inhibition_mean ([2]; concentration 99.5 uM): 32.615%

SMILES: O=C(c1ccncc1)N1CCC(c2ccn3ncc(C(=O)N4CCCCC4)c3c2)CC1 [ASAP-0000405]
- inhibition at 49.75 µM [1, 10]: 10.9%
- inhibition at 99.5 µM [1, 10]: 26.5%
- perc_inhibition_mean ([2]; concentration 49.75 uM): 10.851%
- perc_inhibition_mean ([2]; concentration 99.5 uM): 26.497%

SMILES: Cc1c([C@@H](C)Nc2ncnc3[nH]ccc23)cnn1-c1ccccc1 [ASAP-0000476]
- inhibition at 49.75 µM [1, 11]: 28.1%
- inhibition at 99.5 µM [1, 11]: 41.7%
- perc_inhibition_mean ([2]; concentration 49.75 uM): 28.129%
- perc_inhibition_mean ([2]; concentration 99.5 uM): 41.664%

SMILES: O=C(N[C@@H]1COCC[C@H]1O)c1cnn2ccc(C3CCN(C(=O)c4ccccc4)CC3)cc12 [ASAP-0000399]
- inhibition at 49.75 µM [1, 12]: -5.01%
- inhibition at 99.5 µM [1, 12]: -4.48%
- perc_inhibition_mean ([2]; concentration 49.75 uM): -5.013%
- perc_inhibition_mean ([2]; concentration 99.5 uM): -4.477%

SMILES: O=C(Nc1ccccc1)Nc1ccc(C(=O)Nc2ncccc2F)cc1 [ASAP-0000313]
- inhibition at 49.75 µM [1, 13]: 4.59%
- inhibition at 99.5 µM [1, 13]: 10.2%
- perc_inhibition_mean ([2]; concentration 49.75 uM, n=2): 4.588%
- perc_inhibition_mean ([2]; concentration 99.5 uM, n=2): 10.201%

SMILES: OC[C@@]1(Cc2ccc(F)cc2)CCN(c2ncnc3[nH]ccc23)C1 [ASAP-0000194]
- inhibition at 50 µM ([1]; read-out: perc_inhibition_mean, batch_name=ASAP-0000194-001): 5.07%
- perc_inhibition_mean ([2]; concentration 50.0 uM): 5.07%
